Test results published in patent US6711436B1, “Compositions, apparatus and methods for facilitating surgical procedures” (priority 1997, dated 2004).
Where “and” joins values, the source holds several entries; their conditions need not be identical. Equal values may be shown once.

Test system: heart
Test: In vivo swine study of carbachol alone vs carbachol plus propranolol, intracoronary, to induce ventricular asystole
Conditions: individual swine
Procedure: Eleven male crossbred swine weighing 20-25 kg were studied, eight of which received carbachol alone and three of which received carbachol plus propranolol. The swine were sedated using 10 mg/kg IV ketamine. After 20 minutes, the animals were induced with 10 mg/kg IV thiopental sodium and orotracheally intubated. The proper anesthetic plane was maintained with 1% Isoflurane. Periodic arterial blood gas samples were obtained to guide ventilator management. The electrocardiograph was continuously monitored. Through a 7 Fr sheath in the left femoral artery, arterial blood samples were obtained and a micromanometer was inserted to monitor central aortic blood pressure (Millar Instruments, Inc., Houston, Tex.). The heart was exposed through a median sternotomy and suspended in a pericardial cradle. Two temporary epicardial pacing wires were affixed to the right ventricle and connected to an external pacemaker (Medtronic, Inc., Minneapolis, Minn.). The pacemaker was modified to permit deactuation by means of depressing a foot pedal. Through the femoral sheath, an AR-1 guide (Cordis Corp., Miami Lakes, Fla.) was placed into the right coronary artery. An 0.014-inch floppy guide wire was then advanced into the right coronary artery to the level of the posterior descending coronary artery. The AR-1 guide was removed and a 2.5 Fr Tracker (Cordis Corp., Miami Lakes, Fla.) catheter was inserted over the guide wire. Using dye injection, the catheter was positioned just proximal to the take-off of the atrioventricular node artery. Carbachol (Sigma St. Louis, Mo.) solution was prepared the day of the experiment and infused at a constant rate using a Harvard pump.
Animals received either carbachol alone or carbachol in combination with propranolol (Inderal®, Wyeth Ayerst, Philadelphia, Pa.). All animals were instrumented and allowed 10 minutes of hemodynamic stability. Before carbachol was administered, each subject received a 500 ml IV bolus of 0.9% sodium chloride.
In the animals receiving carbachol plus propranolol, a 1 mg dose of propranolol (0.04-0.05 mg/kg) was administered through the Tracker catheter. Carbachol was then administered as a 0.5 mg intracoronary bolus (0.02 mg/kg) followed by a constant infusion. […] After carbachol-mediated ventricular asystole was observed, the heart was paced at 100 beats/minute. […] The systolic blood pressure (SBP), diastolic blood pressure (DBP), and […] arterial pressure (MAP) were recorded every five minutes. The duration of ventricular asystole, defined in this example as a heart rate less than twelve beats per minute, was recorded. […] After 75 minutes, the carbachol infusion was stopped and the time required to return to normal sinus rhythm was recorded.

Compound: C[N+](C)(C)CCOC(N)=O.[Cl-] [carbachol, carbamyl choline chloride]
- time to NSR (normal sinus rhythm) (after carbachol infusion was stopped (after 75 minutes)): 8 min and 3 min
- duration of ventricular asystole (asystole defined as heart rate less than twelve beats per minute, pacemaker turned off 5 s at 60-second intervals): 87 min and 75 min (2×) and 53 min and 24 min and 76 min (2×) and 47 min
- carbachol dose (infusion rate per body weight) achieving ventricular asystole (intracoronary infusion): 86.0 μg/kg/min and 12.2 μg/kg/min and 9.7 μg/kg/min and 20.9 μg/kg/min and 41.9 μg/kg/min and 10.7 μg/kg/min (2×) and 31.0 μg/kg/min
- infusion rate of carbachol necessary to achieve ventricular asystole (intracoronary infusion, doses increased until ventricular asystole observed, combination arm: 1 mg propranolol then 0.5 mg carbachol bolus before infusion): 1.72 mg/min and 0.44 mg/min (5×) and 0.88 mg/min and 0.62 mg/min
